Experimental data reported in patent US11040957B2, “Heteroaromatic compounds useful for the treatment of proliferative diseases” (Syros Pharmaceuticals, Inc., priority 2013, dated 2021).
Each block holds one compound with its values, some of them ahead of it.

What was measured:
CDK7 = target: T1, CDK7 (Homo sapiens, UniProt P50613); assay: ADAPTA kinase assay, CDK7 (Life Technologies); assay type: biochemical; conditions: co-factors cyclin H and MNAT1; 10 μM down to 0.514 nM, 3-fold serial dilutions; read-out: CDK7 calculated IC50
T1 construct: purchased Life Technologies (Grand Island, N.Y.), ADAPTA kinase assay service

CDK1 = target: T2, CDK1 (Homo sapiens, UniProt P06493); assay: Z'-LYTE kinase assay, CDK1; assay type: biochemical; conditions: cyclin B co-factor
T2 construct: purchased Life Technologies (Grand Island, N.Y.), Z'-LYTE kinase assay service
Protocol: (§1) Compounds of the invention were assayed for activity against a variety of different kinases at Life Technologies™ (Grand Island, N.Y.) using their commercially available ADAPTA® (for CDK7, CDK9/cyclin T1, and IRAK1 kinases), Z′-LYTE® (for CDK1, CDK2, CDK5/p25, CDK5/p35, JNK1 and JNK2 kinases) and LANTHASCREEN EU® (for CDK8, CDK9/cyclin K and MLK3) kinase assay services. Test compounds were tested at 100 nM and 1 μM final concentrations in 1% DMSO against all kinases except CDK7. For CDK7, test compounds were tested at concentrations ranging from 10 μM down to 0.514 nM in a series of 3-fold serial dilutions. Details of these assays, including substrates used for each kinase, are available on the Life Technologies web site (www.lifetechnologies.com/). The results of the assay are shown below in Tables 2A and 2B. […] The co-factors used for each kinase in the assays were as follows CDK1—cyclin B; CDK2—cyclin A; CDK5—p25 or p35 as indicated; CDK7—cyclin H and MNAT1; CDK8—cyclin C; CDK9—cyclin K or cyclin T1 as indicated; IRAK1—Histone H3 (1-20) peptide; JNK1—none required; JNK2—none required; MLK3—none required.

CDK2 = target: T3, CDK2 (Homo sapiens, UniProt P24941); assay: Z'-LYTE kinase assay, CDK2; assay type: biochemical; conditions: cyclin A co-factor
T3 construct: purchased Life Technologies (Grand Island, N.Y.), Z'-LYTE kinase assay service
Protocol: as §1

CDK5/p25 = target: T4, CDK5/p25 (Homo sapiens, UniProt Q00535); assay: Z'-LYTE kinase assay, CDK5/p25; assay type: biochemical
T4 construct: purchased Life Technologies (Grand Island, N.Y.), Z'-LYTE kinase assay service
Protocol: as §1

CDK5/p35 = target: T5, CDK5/p35 (Homo sapiens, UniProt Q00535); assay: Z'-LYTE kinase assay, CDK5/p35; assay type: biochemical; conditions: p35 co-factor
T5 construct: purchased Life Technologies (Grand Island, N.Y.), Z'-LYTE kinase assay service
Protocol: as §1

CDK8 = target: T6, CDK8 (Homo sapiens, UniProt P49336); assay: LANTHASCREEN EU kinase assay, CDK8; assay type: binding; conditions: cyclin C co-factor
T6 construct: purchased Life Technologies (Grand Island, N.Y.), LA[…] kinase assay service
Protocol: as §1

CDK9/cyclin T1 = target: T7, CDK9/cyclin T1 (Homo sapiens, UniProt P50750); assay: ADAPTA kinase assay, CDK9/cyclin T1; assay type: biochemical; conditions: cyclin T1 co-factor
T7 construct: purchased Life Technologies (Grand Island, N.Y.), ADAPTA kinase assay service
Protocol: as §1

CDK9/cyclin K = target: T8, CDK9/cyclin K (Homo sapiens, UniProt P50750); assay: LANTHASCREEN EU kinase assay, CDK9/cyclin K; assay type: binding; conditions: cyclin K co-factor
T8 construct: purchased Life Technologies (Grand Island, N.Y.), LANTHASCREEN EU kinase assay service
Protocol: as §1

JNK1 = target: T9, JNK1 (Homo sapiens, UniProt P45983); assay: Z'-LYTE kinase assay, JNK1; assay type: biochemical
T9 construct: purchased Life Technologies (Grand Island, N.Y.), Z'-LYTE kinase assay service
Protocol: as §1

JNK2 = target: T10, JNK2 (Homo sapiens, UniProt P45984); assay: Z'-LYTE kinase assay, JNK2; assay type: biochemical
T10 construct: purchased Life Technologies (Grand Island, N.Y.), Z'-LYTE kinase assay service
Protocol: as §1

Jurkat cells = assay: Inhibition of proliferation of Jurkat cells ([…]-GLO, 72 hour); assay type: cell-based; conditions: Homo sapiens
Protocol: Representative compounds of the invention were tested at different concentrations (from 10 μM to […]; 0.5 log serial dilutions) for their ability to inhibit the proliferation of Jurkat cells. Cells were grown in RPMI 1640+10% FBS+1% Glutamax supplemented with FBS (Life Technologies) and 100 U.mL^−1 penicillin, 100 μg·mL^−1 streptomycin (Invitrogen) and cultured at 37° C. in a humidified chamber in the presence of 5% CO2. Proliferation assays were conducted over a 72 hour time period. […]-GLO® (Promega Corporation, Madison, Wis. USA) was used to assess the anti-proliferative effects of the compounds following manufacturer's directions and utilizing the reagents supplied with the […]-GLO® kit. In this table, “A” represents an IC50 of less than 500 nM; “B” an IC50 of between 500 nM and 5 μM; and “C” an IC50 of greater than 5 μM.

MLK3 = target: T11, MLK3 (Homo sapiens, UniProt Q16584); assay: LANTHASCREEN EU kinase assay, MLK3; assay type: binding; conditions: calculated; read-out: C50 against MLK3
T11 construct: purchased Life Technologies (Grand Island, N.Y.), LA[…] kinase assay service
Protocol: as §1, with “Test compounds were tested at 100 nM and 1 μM final concentrations in 1% DMSO against all kinases except CDK7.” left out

T4 sequence (Q00535 whole entry): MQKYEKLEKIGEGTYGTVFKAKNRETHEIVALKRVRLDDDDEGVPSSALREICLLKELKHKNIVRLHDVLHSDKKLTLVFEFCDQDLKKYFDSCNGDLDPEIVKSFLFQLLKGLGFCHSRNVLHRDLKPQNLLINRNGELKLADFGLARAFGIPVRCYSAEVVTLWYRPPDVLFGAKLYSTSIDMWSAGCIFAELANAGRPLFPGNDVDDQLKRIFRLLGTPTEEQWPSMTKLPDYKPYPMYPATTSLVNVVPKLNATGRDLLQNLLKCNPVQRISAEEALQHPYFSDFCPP
T4 sequence (Q15078 99-307 partner limits assumed): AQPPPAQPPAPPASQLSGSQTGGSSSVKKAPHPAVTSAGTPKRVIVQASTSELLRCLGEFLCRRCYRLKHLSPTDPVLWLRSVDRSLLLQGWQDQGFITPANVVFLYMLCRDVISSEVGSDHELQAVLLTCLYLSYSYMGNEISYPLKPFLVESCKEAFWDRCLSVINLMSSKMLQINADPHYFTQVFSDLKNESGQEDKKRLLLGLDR
T5 sequence (Q00535 whole entry): as the sequence (Q00535 whole entry) above
T5 sequence (Q15078 whole entry partner): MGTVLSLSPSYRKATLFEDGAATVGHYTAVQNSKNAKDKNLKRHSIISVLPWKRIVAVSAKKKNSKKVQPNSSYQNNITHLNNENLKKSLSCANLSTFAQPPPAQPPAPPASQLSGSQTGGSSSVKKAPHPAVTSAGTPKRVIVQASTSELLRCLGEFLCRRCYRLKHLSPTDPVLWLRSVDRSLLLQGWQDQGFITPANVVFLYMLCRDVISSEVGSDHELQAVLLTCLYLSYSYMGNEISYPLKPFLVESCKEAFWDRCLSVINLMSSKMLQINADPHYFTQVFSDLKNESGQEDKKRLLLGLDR
T9 sequence (P45983 whole entry): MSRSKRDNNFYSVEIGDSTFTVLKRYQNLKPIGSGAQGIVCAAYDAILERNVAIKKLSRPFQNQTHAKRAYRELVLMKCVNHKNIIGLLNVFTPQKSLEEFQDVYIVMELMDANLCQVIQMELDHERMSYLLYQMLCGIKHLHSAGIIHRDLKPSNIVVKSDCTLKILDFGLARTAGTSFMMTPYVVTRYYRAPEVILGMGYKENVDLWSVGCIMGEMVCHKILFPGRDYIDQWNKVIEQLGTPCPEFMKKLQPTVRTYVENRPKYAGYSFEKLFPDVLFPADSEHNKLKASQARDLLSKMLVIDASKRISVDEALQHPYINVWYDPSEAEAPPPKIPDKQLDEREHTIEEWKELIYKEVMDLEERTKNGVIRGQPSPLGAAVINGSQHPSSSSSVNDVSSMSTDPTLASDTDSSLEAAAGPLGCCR
T1 sequence (P50613 whole entry): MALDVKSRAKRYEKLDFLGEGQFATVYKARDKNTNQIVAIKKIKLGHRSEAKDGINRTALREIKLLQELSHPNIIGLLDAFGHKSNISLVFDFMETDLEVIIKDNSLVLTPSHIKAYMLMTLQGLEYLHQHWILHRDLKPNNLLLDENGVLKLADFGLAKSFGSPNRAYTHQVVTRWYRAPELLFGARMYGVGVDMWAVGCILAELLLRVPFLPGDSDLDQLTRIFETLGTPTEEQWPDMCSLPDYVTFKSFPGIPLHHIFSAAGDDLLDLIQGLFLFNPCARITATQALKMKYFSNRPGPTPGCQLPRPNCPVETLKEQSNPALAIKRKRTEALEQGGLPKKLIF
T1 sequence (P51946 whole entry partner): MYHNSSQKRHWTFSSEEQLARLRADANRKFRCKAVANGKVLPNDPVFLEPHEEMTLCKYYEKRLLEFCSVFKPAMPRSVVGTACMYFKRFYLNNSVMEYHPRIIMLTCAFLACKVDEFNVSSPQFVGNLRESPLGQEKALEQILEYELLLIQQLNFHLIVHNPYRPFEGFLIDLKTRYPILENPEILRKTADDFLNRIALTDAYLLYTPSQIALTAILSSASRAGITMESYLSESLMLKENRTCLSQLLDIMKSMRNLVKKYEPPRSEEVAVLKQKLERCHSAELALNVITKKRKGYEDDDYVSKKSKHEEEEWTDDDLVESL
T1 sequence (P51948 whole entry partner): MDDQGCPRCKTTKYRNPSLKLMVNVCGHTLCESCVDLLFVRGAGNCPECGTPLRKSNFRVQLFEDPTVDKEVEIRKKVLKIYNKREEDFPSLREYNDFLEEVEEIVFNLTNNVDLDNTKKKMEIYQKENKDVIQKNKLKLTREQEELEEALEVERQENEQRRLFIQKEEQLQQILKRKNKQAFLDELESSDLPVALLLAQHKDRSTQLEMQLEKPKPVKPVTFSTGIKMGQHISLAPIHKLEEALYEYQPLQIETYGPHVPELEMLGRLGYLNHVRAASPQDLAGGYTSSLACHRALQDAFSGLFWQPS
T7 sequence (P50750 whole entry): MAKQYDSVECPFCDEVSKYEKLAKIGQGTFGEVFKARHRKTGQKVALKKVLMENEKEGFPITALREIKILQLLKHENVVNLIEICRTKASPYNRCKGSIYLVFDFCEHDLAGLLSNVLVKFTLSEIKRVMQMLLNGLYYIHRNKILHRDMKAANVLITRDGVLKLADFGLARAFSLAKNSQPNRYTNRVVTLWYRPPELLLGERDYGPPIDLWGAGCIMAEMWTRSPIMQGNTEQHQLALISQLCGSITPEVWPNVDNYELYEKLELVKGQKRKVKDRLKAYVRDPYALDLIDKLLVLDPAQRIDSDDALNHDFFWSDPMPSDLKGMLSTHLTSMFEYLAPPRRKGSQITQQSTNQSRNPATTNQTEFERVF
T7 sequence (O60563 whole entry partner): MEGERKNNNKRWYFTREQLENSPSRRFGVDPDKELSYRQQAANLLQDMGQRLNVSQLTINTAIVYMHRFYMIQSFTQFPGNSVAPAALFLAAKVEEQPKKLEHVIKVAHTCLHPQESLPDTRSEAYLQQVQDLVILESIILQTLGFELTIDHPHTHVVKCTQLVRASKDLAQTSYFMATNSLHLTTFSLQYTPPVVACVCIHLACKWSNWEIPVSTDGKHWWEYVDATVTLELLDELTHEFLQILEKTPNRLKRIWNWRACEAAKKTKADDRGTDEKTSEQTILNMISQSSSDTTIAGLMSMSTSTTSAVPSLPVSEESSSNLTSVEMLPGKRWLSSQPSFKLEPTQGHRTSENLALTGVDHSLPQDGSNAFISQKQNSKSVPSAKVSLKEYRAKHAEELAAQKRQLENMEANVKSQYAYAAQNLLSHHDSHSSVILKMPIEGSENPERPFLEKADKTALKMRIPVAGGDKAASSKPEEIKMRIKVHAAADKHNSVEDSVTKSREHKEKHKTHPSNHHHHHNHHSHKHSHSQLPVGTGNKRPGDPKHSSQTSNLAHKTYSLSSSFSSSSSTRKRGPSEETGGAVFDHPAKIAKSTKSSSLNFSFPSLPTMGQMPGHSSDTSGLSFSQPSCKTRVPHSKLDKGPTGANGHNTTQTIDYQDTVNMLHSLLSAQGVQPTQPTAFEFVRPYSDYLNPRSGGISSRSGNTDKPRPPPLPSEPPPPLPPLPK
T8 sequence (P50750 whole entry): as the sequence (P50750 whole entry) above
T8 sequence (O75909 whole entry partner): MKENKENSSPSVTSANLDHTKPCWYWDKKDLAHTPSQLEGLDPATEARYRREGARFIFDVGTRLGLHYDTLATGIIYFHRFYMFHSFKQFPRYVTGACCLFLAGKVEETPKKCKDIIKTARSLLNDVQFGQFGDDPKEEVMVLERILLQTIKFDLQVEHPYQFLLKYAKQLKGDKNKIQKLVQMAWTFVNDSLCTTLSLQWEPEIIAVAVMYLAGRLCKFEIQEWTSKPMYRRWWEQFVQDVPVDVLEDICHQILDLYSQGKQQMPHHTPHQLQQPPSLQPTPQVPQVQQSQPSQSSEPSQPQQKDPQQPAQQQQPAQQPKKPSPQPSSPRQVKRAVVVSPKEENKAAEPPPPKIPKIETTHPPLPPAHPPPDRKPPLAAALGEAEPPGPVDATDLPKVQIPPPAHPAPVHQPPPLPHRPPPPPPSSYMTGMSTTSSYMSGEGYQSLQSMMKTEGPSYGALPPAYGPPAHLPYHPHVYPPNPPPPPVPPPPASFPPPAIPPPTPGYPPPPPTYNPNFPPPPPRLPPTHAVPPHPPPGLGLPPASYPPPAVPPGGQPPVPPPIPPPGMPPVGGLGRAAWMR
T10 sequence (P45984 whole entry): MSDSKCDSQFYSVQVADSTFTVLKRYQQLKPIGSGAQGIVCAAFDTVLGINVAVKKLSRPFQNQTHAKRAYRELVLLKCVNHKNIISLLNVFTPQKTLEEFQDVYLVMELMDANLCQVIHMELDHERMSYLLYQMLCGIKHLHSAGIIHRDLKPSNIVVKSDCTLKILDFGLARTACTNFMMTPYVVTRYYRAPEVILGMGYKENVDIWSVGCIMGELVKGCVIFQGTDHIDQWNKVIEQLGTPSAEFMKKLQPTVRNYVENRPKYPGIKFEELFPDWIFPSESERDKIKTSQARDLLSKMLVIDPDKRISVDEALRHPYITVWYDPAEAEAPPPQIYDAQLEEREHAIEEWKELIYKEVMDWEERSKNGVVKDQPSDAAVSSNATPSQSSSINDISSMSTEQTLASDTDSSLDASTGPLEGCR

IC50 (CDK7): 0.1 to 1 µM | inhibition at 0.1 µM (CDK1; compound tested at 100 nM): < 50% | inhibition at 1 µM (CDK1; compound tested at 1 μM): < 50% | inhibition at 0.1 µM (CDK2; compound tested at 100 nM): < 50% | inhibition at 1 µM (CDK2; compound tested at 1 μM): < 50% | inhibition at 0.1 µM (CDK5/p25; compound tested at 100 nM, p25 co-factor): < 50% | inhibition at 1 µM (CDK5/p25; compound tested at 1 μM, p25 co-factor): < 50% | inhibition at 0.1 µM (CDK5/p35; compound tested at 100 nM): < 50% | inhibition at 1 µM (CDK5/p35; compound tested at 1 μM): < 50% | inhibition at 0.1 µM (CDK8; compound tested at 100 nM): < 50% | inhibition at 1 µM (CDK8; compound tested at 1 μM): < 50% | inhibition at 0.1 µM (CDK9/cyclin T1; compound tested at 100 nM): < 50% | inhibition at 1 µM (CDK9/cyclin T1; compound tested at 1 μM): < 50% | inhibition at 0.1 µM (CDK9/cyclin K; compound tested at 100 nM): < 50% | inhibition at 1 µM (CDK9/cyclin K; compound tested at 1 μM): < 50% | inhibition at 0.1 µM (JNK1; compound tested at 100 nM): 50 to 70% | inhibition at 1 µM (JNK1; compound tested at 1 μM): > 70% | inhibition at 0.1 µM (JNK2; compound tested at 100 nM): < 50% | inhibition at 1 µM (JNK2; compound tested at 1 μM): > 70% | IC50 (Jurkat cells): 0.5 to 5 µM
SMILES: CN(C)C/C=C/C(=O)Nc1ccc(C(=O)N2CCCC(CNc3ncc(Cl)c(-c4c[nH]c5ccccc45)n3)C2)cc1 (stereo not drawn) [Compound 101, (E)-N-(4-(3-((5-chloro-4-(1H-indol-3-yl)pyrimidin-2-ylamino)methyl)piperidine-1-carbonyl)phenyl)-4-(dimethylamino)but-2-enamide]

IC50 (CDK7): 0.1 to 1 µM
SMILES: CN(C)C/C=C/C(=O)Nc1ccc(NC(=O)N2CCCC(Nc3ncc(Cl)c(-c4c[nH]c5ccccc45)n3)C2)cc1 (stereo not drawn) [Compound 102]

IC50 (CDK5/p25; p25 as co-factor, calculated, read-out: IC50 against CDK5): 3 µM | IC50 (MLK3): 3.2 µM | IC50 (Jurkat cells): < 0.5 µM
SMILES: CN(C)C/C=C/C(=O)Nc1ccc(C(=O)N2CCCC(Nc3ncc(Cl)c(-c4c[nH]c5ccccc45)n3)C2)cc1 (stereo not drawn) [Compound 100, (E)-N-(4-(3-(5-chloro-4-(1H-indol-3-yl)pyrimidin-2-ylamino)piperidine-1-carbonyl)phenyl)-4-(dimethylamino)but-2-enamide]
